Some test systems named below: MDA-N; Hs-578T; M19-MEL; DLD-1; KM-20L2; HOP-18; XF498; RXF 631; BT-549.
What all share (experiment): growth of human tumour cells (NCI), 48 h

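Tested at 5 concentrations; 48 h exposure; 96-well plates; endpoints linearly interpolated, else capped at highest concentration. GI50: concentration for 50% inhibition of growth.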 Active and inactive are the calls of the source. Rule as the data show it: active = GI50 up to about 1.1 µM and inactive = higher. Bounds are passed on as bounds.

On to `Cc1ccc(S(=O)(=O)NNC(=O)Nc2ccc(Cl)cc2)cc1`, for which the GI50 in the assay with MDA-N and in the assay with Hs-578T was > 100 µM (inactive) in each case.

Consider `Nc1nc(Cl)nc2c1ncn2C1CC(O)C(CO)O1` (configuration not stated), for which the GI50 in the assay on M19-MEL was > 30.3 µM (inactive); with DLD-1 it was > 100 µM (inactive); in the assay on KM-20L2 it was 2.42 µM (inactive); with HOP-18 it was > 100 µM (inactive).

For `COC(=O)C(Cc1ccc2c(c1)OCO2)(NC(=O)c1ccccc1)P(=O)(OC)OC` (configuration not stated), the GI50 with M19-MEL, in the assay on DLD-1, in the assay with KM-20L2, in the assay with XF498 and in the assay on RXF 631 was > 100 µM (inactive) in each case.

`O=Cc1ccccc1CCn1c(=O)c2cc3c(=O)n(CCc4ccccc4C=O)c(=O)c3cc2c1=O`: in the assay with DLD-1, the GI50 was > 100 µM (inactive).

On to `O=c1ccc2ccc(CBr)cc2o1`, for which the GI50 in the assay on MDA-N was 3.85 µM (inactive); with Hs-578T, 9.84 µM (inactive); in the assay on BT-549, 3 µM (inactive).

For the molecule `CC(=O)c1c(-c2ccccc2)c(-c2ccc(OCCN(C)C)cc2)n2ccccc12`, the figures for the GI50 in the assay with MDA-N, in the assay on Hs-578T and with BT-549 were 15.8 µM (inactive), 16.3 µM (inactive) and 14.9 µM (inactive), respectively.

Regarding `COc1ccc2nc(-n3c(/C=C/c4ccccc4O)nc4ccccc4c3=O)sc2c1`, the GI50 in the assay on MDA-N is 17 µM (inactive); with Hs-578T it was > 100 µM (inactive); with BT-549, 27.5 µM (inactive).

Consider `COc1ccc(NC(C)=O)cc1N1C(=O)/C(=C\c2ccccc2)SC1c1cc(OC)c(OC)c(OC)c1` (configuration not stated), for which the GI50 in the assay on MDA-N was 25.8 µM (inactive); in the assay on BT-549 it was 47.4 µM (inactive).

As to `C=C1C(=O)O[C@@H]2[C@H](O)[C@@H](C)[C@@H]3C=CC(=O)[C@@]3(C)[C@@H](OC(=O)/C(C)=C/C)[C@H]12`, the GI50 in the assay on M19-MEL is 0.363 µM (active); in the assay on DLD-1 it was 0.728 µM (active); with KM-20L2, 1.75 µM (inactive); in the assay on XF498, 0.471 µM (active); with HOP-18, 1.9 µM (inactive).

For `C=C1CC(Cn2cc(Br)c(=O)[nH]c2=O)(c2ccc(Br)cc2)OC1=O` (configuration not stated), the GI50 with MDA-N is 2.37 µM (inactive); in the assay with Hs-578T, 5.98 µM (inactive); in the assay on BT-549, 2.37 µM (inactive).

As for `CC(C)(C)c1ccc2c(c1)OP1(Oc3c(Cl)cc(Cl)c4cccnc34)(O2)Oc2ccc(C(C)(C)C)cc2O1`, the GI50 in the assay on M19-MEL was 3.12 µM (inactive); in the assay with DLD-1, 5.2 µM (inactive); in the assay with KM-20L2, 4.92 µM (inactive); in the assay with XF498 it was 13.5 µM (inactive); in the assay on HOP-18, 9.98 µM (inactive).

Turning to `COc1cc2c(cc1O)N=C[C@@H]1CC[C@@H](O)N1C2=O.COc1cc2c(cc1O)N=C[C@@H]1CC[C@H](O)N1C2=O`, the GI50 with M19-MEL is 1.2 µM (inactive); in the assay with DLD-1, 1 µM (active); with KM-20L2, 1.72 µM (inactive); in the assay with XF498, 0.48 µM (active); in the assay on HOP-18 it was 0.863 µM (active).

As for `Cc1ccc(S(=O)(=O)OCCN(CCOS(=O)(=O)c2ccc(C)cc2)c2ccc(C=O)cc2)cc1`, the GI50 in the assay on Hs-578T is 36.2 µM (inactive); in the assay with BT-549, 28.8 µM (inactive).

Turning to `O/N=C\c1cc(O)c(O)c(/C=N/O)c1`, the GI50 with MDA-N was 47.9 µM (inactive); in the assay with Hs-578T it was 23.9 µM (inactive); in the assay with BT-549, 79.1 µM (inactive).

Turning to `CO[C@H]1SC[C@H](OC(C)=O)[C@H](OC(C)=O)[C@H]1OC(C)=O`, the GI50 in the assay with MDA-N, in the assay on Hs-578T and in the assay with BT-549 was > 100 µM (inactive) each time.

Turning to `O=S(=O)(N/N=C/c1ccc(Cl)cc1Cl)c1ccccc1`, the GI50 with M19-MEL is > 100 µM (inactive); in the assay with DLD-1, > 100 µM (inactive); in the assay on KM-20L2 it was 85.1 µM (inactive); with XF498, 78.7 µM (inactive); with HOP-18, 57.5 µM (inactive); with RXF 631, 61.1 µM (inactive).

Take `COC(=O)C1=Nc2c(C)nn(-c3ccccc3)c2N=C(c2ccccc2)C1`: the GI50 with MDA-N, with Hs-578T and with BT-549 was > 10 µM (inactive) each time.

Turning to `C/C(CC(=O)Nc1ccccc1)=N\NC(N)=S`, the GI50 in the assay with M19-MEL, with DLD-1, in the assay on KM-20L2 and in the assay on XF498 was > 100 µM (inactive) throughout.

As for `CC(=O)C(CN1CCCCC1)C(c1ccccc1)c1c(O)c2ccccc2oc1=O` (configuration not stated), the GI50 with MDA-N, with Hs-578T and in the assay with BT-549 was > 100 µM (inactive) in each case.

As to `Cc1cc(O)nc(NN2C(Cl)C(=O)C2c2cccc(Cl)c2)n1` (configuration not stated), the GI50 is 33.9 µM (inactive) in the assay with M19-MEL, 32.9 µM (inactive) with KM-20L2 and 24 µM (inactive) with HOP-18.

`CCCCCCCCCCCCSC(=S)c1c(C)[nH]n(CCCCCCCCCCCC)c1=O`: the GI50 was 31.6 µM (inactive) in the assay with M19-MEL; > 100 µM (inactive) in the assay on DLD-1; 73.1 µM (inactive) in the assay on KM-20L2; 65 µM (inactive) with HOP-18; > 100 µM (inactive) with RXF 631.

Consider `COc1cc(CCc2ccncc2)cc(OC)c1OC`, for which the GI50 in the assay with M19-MEL, in the assay with DLD-1, in the assay with KM-20L2, with XF498, in the assay on HOP-18 and with RXF 631 was > 100 µM (inactive) throughout.

With `O=c1c(C(c2ccc(OCc3ccccc3)cc2)c2c(O)oc3ccccc3c2=O)c(O)oc2ccccc12`, the GI50 in the assay on MDA-N is 24.7 µM (inactive); with Hs-578T it was 34.3 µM (inactive); in the assay with BT-549, 24.9 µM (inactive).

The record behind these values is ChEMBL document CHEMBL1201862, “PubChem BioAssay data set” (2004).
